Publication PMC12527977, “Discovery of a novel tetrapeptide as glucose homeostasis modulator with bifunctionalities of targeting DPP‐IV and microbiota” (iMeta, 2025)
Where two headings read alike, the source gives them in different places. Where a SMILES comes first, the peptide text is derived from it. Where no end group is shown, it is not given here.

What was measured:
DPP-IV [1] = target: T1, DPP-IV (Homo sapiens, UniProt P27487); assay: DPP-IV inhibitory activity of peptides (DPP-IV-Glo Protease Assay Kit); assay type: biochemical; design: purchased QiZheng Biotech (Shanghai, China) IBDPP0901; conditions: for DPP-IV inhibitory activity: DPP-IV-Glo Protease Assay Kit, control = 0, in % (unit assumed)
Target sequence in this assay (P27487 whole entry): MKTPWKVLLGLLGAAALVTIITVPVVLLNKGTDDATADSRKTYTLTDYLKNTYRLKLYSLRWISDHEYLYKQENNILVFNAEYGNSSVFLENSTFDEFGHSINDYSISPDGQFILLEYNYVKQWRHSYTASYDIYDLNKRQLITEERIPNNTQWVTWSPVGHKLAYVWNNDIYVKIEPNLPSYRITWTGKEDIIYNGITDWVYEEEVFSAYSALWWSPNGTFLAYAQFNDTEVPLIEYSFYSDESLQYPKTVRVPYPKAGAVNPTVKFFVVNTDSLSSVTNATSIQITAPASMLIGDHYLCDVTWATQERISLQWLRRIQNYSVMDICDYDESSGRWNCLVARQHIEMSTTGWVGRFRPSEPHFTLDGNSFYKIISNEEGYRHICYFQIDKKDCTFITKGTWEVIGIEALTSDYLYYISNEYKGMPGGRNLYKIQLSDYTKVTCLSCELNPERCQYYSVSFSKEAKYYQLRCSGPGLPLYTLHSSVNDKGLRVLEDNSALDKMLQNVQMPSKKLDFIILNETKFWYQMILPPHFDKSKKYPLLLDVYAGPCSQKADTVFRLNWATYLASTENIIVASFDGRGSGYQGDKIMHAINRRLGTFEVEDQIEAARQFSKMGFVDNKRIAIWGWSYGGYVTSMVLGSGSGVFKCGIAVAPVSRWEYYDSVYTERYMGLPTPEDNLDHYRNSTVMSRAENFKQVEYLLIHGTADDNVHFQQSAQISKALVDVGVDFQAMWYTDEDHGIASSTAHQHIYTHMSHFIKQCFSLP

[2] = Simulated digestive stability of peptides (pepsase then trypsase); assay type: in vitro ADME, porcine; conditions: pig, relative to basal 100, sheet S2H; for remaining at 4 h, 5 mg/mL: pH 7, simulated digestion, after pepsase then trypsase, read-out: Peptide remaining, Trypsase; for remaining at 2 h, 5 mg/mL: porcine pepsase (simulated gastric digestion), pH 3, simulated digestion, after porcine pepsase, read-out: Peptide remaining, Pepsase
Procedure: The in vitro digestibility of the peptides was determined according to the method described by Ohanenye et al. with some modifications. Briefly, 5.0 mg/mL peptides were mixed with 5000 U/mL porcine pepsase (pH 3.0). The mixture was incubated with continuous shaking in a water bath at 37 ℃ for 2 h. Then, the mixture was adjusted to pH 7.0, and a final concentration of 100 U/mL trypsase was added, followed by continuous shaking at 37 ℃ for another 2 h. After digestion, the enzyme was inactivated, and the mixture was incubated in a water bath (100 ℃) for 20 min. Subsequently, the mixture was centrifuged at 6000 rpm for 20 min, after which the supernatants were collected for further analysis. The concentrations of peptides in the digestions and TPH were determined via AB SCIEX QTrap 6600+ (AB Sciex, Framingham, Massachusetts).

DPP-IV [3] = target: T1, DPP-IV; assay: Surface plasmon resonance (Biacore 8K, CM5 chip, 25 °C); assay type: binding; design: purchased QiZheng Biotech (Shanghai, China) IBDPP0901
dipeptidyl peptidase IV = dipeptidyl peptidase IV (UniProt P27487)
[4] = SPR, Table S3, read-out: KD values

Chain of dipeptidyl peptidase IV (P27487 41-765): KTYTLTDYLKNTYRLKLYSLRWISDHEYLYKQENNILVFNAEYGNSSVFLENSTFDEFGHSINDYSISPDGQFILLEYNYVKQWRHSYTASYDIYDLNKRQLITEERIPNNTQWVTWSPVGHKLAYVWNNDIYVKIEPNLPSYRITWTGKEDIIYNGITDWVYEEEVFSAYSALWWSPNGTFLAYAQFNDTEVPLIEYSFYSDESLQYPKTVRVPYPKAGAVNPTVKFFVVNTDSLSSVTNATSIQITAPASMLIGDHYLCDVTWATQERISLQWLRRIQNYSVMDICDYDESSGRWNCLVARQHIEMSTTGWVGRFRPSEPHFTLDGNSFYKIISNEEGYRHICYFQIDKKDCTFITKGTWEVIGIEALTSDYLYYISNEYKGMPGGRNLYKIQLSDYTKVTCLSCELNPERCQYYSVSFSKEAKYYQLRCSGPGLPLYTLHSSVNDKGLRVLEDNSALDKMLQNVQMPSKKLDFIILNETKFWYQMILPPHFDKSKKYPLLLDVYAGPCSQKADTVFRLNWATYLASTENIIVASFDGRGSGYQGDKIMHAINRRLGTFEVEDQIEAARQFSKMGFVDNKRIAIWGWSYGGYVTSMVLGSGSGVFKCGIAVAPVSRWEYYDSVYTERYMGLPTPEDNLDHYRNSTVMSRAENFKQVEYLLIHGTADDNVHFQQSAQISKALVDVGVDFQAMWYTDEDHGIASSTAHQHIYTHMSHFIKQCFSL

DPP-IV inhibitory activity (DPP-IV [1]; replicate 1, sheet S2F)	DPP-IV inhibitory activity (DPP-IV [1]; replicate 2, sheet S2F)	DPP-IV inhibitory activity (DPP-IV [1]; replicate 3, sheet S2F)	Compound	DPP-IV inhibitory activity (DPP-IV [1]; replicate 1, […])	DPP-IV inhibitory activity (DPP-IV [1]; replicate 2, […])	DPP-IV inhibitory activity (DPP-IV [1]; replicate 3, […])	IC50 (DPP-IV [1]; Table S3, read-out: IC50)	other results
			PQNHA [PQNHA]	27.665	17.6559	16.9893		IC50 (DPP-IV [1]): 24600 µM
32.8224	33.3933	36.9146	CC(C)C[C@H](NC(=O)[C@@H](N)CC(C)C)C(=O)N[C@@H](Cc1ccc(O)cc1)C(=O)O [LLY] (H-Leu-Leu-Tyr-OH)				830 µM	remaining at 4 h, 5 mg/mL ([2]; replicate 1): 0.95%; remaining at 4 h, 5 mg/mL ([2]; replicate 2): 0.78%; remaining at 4 h, 5 mg/mL ([2]; replicate 3): 0.81%; remaining at 2 h, 5 mg/mL ([2]; replicate 1): 1.24%; remaining at 2 h, 5 mg/mL ([2]; replicate 2): 0.79%; remaining at 2 h, 5 mg/mL ([2]; replicate 3): 0.98%; Kd (DPP-IV [3]; [4]): 5.23 µM
			FDGEL [FDGEL]	28.637	26.7775	19.1292		IC50 (DPP-IV [1]): 45100 µM
			PSSQQ [PSSQQ]	8.036	8.558	22.2643		IC50 (DPP-IV [1]): 730 µM; Kd (DPP-IV [3]): 37000 µM
			PSSQQ (peptide)					IC50 of inhibition of DPP-IV activity in vitro (dipeptidyl peptidase IV): 730 µM
			YTPHW [YTPHW]	18.6094	9.79	21.0526	7110 µM	
			YQL (peptide)					IC50 of inhibition of DPP-IV activity in vitro (dipeptidyl peptidase IV): 280 µM
			YNL (peptide)					IC50 of inhibition of DPP-IV activity in vitro (dipeptidyl peptidase IV): 140 µM
			CC(C)C[C@H](NC(=O)[C@H](CC(N)=O)NC(=O)[C@@H](N)Cc1ccc(O)cc1)C(=O)O [YNL] (H-Tyr-Asn-Leu-OH)	24.2295	23.675	21.7871	140 µM	
			FQL (peptide)					IC50 of inhibition of DPP-IV activity in vitro (dipeptidyl peptidase IV): 970 µM
82.2499	85.4257	81.38	N[C@@H](Cc1c[nH]c2ccccc12)C(=O)N[C@@H](CC(=O)O)C(=O)N[C@@H](CO)C(=O)N[C@@H](Cc1ccc(O)cc1)C(=O)O [WDSY] (H-WDSY-OH)				630 µM	
			FNPRG [FNPRG]	47.4625	43.5702	43.4293		IC50 (DPP-IV [1]): 40500 µM
			WIAVK [WIAVK]	55.8181	53.6066	51.0205		IC50 (DPP-IV [1]): 600 µM
25.2277	32.7776	32.9911	CC(C)C[C@H](NC(=O)[C@@H](N)Cc1ccccc1)C(=O)N[C@@H](CCC(N)=O)C(=O)O [FLQ] (H-Phe-Leu-Gln-OH)				4130 µM	
			FNVDSE [FNVDSE]	14.7737	13.6123	13.4568		IC50 (DPP-IV [1]): 84000 µM
21.3239	16.4075	17.3019	CC(C)C[C@H](NC(=O)[C@@H](N)Cc1c[nH]c2ccccc12)C(=O)N[C@@H](CCC(=O)O)C(=O)O [WLE] (H-Trp-Leu-Glu-OH)				2400 µM	
			CC(C)C[C@H](NC(=O)[C@H](CCC(N)=O)NC(=O)[C@@H](N)Cc1ccc(O)cc1)C(=O)O [YQL] (H-Tyr-Gln-Leu-OH)	20.7988	21.5571	29.5286	280 µM	
			FLQ (peptide)					IC50 of inhibition of DPP-IV activity in vitro (dipeptidyl peptidase IV): 4130 µM

Compound	DPP-IV inhibitory activity (DPP-IV [1]; replicate 1, sheet S2F)	DPP-IV inhibitory activity (DPP-IV [1]; replicate 2, sheet S2F)	DPP-IV inhibitory activity (DPP-IV [1]; replicate 3, sheet S2F)	DPP-IV inhibitory activity (DPP-IV [1]; replicate 1, […])	DPP-IV inhibitory activity (DPP-IV [1]; replicate 2, […])	DPP-IV inhibitory activity (DPP-IV [1]; replicate 3, […])	IC50 (DPP-IV [1]; Table S3, read-out: IC50)	other results
C[C@H](NC(=O)[C@H](Cc1ccc(O)cc1)NC(=O)[C@H](CO)NC(=O)[C@@H](N)Cc1ccc(O)cc1)C(=O)O [YSYA] (H-YSYA-OH)	27.0679	29.9267	30.8304				410 µM	remaining at 4 h, 5 mg/mL ([2]; replicate 1): 3.01%; remaining at 4 h, 5 mg/mL ([2]; replicate 2): 3.24%; remaining at 4 h, 5 mg/mL ([2]; replicate 3): 4.18%; remaining at 2 h, 5 mg/mL ([2]; replicate 1): 17.8%; remaining at 2 h, 5 mg/mL ([2]; replicate 2): 17.7%; remaining at 2 h, 5 mg/mL ([2]; replicate 3): 15.2%; Kd (DPP-IV [3]; [4]): 5.54 µM
C[C@@H](O)[C@H](NC(=O)[C@@H](N)Cc1ccc(O)cc1)C(=O)NCC(=O)N[C@@H](CC(=O)O)C(=O)O [YTGD] (H-YTGD-OH)	20.1405	15.5931	21.6532				320 µM	Kd (DPP-IV [3]; [4]): 100 µM
CSCC[C@H](NC(=O)[C@H](CC(C)C)NC(=O)[C@H](CCC(N)=O)NC(=O)[C@@H](N)Cc1ccc(O)cc1)C(=O)O [YQLM] (H-YQLM-OH)	41.3327	38.0136	34.538				650 µM	remaining at 4 h, 5 mg/mL ([2]; replicate 1): 14.3%; remaining at 4 h, 5 mg/mL ([2]; replicate 2): 12.7%; remaining at 4 h, 5 mg/mL ([2]; replicate 3): 9.83%; remaining at 2 h, 5 mg/mL ([2]; replicate 2): 14.7%; remaining at 2 h, 5 mg/mL ([2]; replicate 3): 15%; Kd (DPP-IV [3]; [4]): 25.4 µM
